Patent publication US20250369982A1, “METHODS OF DETECTING DDR1 PHOSPHORYLATION” (IncendiaTherapeutics, Inc., priority 2022, published 2025)

Tested on: T47D cells
Type: cell-based
Conditions: serum-starved T47D cells, 96 hours, compared to DMSO or IgG1 controls
From the text: To measure proliferation, Hoechst staining was used to stain nuclei and CellMask™ (Thermo Fisher Scientific) Deep Red was used to stain cell membranes. To measure cell death, Annexin V was used to stain phosphatidylserine on the cell surface, a marker of apoptosis, and Incucyte® Cytotox Green (Sartorius) to stain cells with compromised membrane integrity, a marker of cell death.

With `CC(=O)O[C@H]1C(=O)[C@@]2(C)[C@H]([C@H](OC(=O)c3ccccc3)[C@]3(O)C[C@H](OC(=O)[C@H](O)[C@@H](NC(=O)c4ccccc4)c4ccccc4)C(C)=C1C3(C)C)[C@]1(OC(C)=O)CO[C@@H]1C[C@@H]2O` [paclitaxel] the “effect on cell death (Annexin V, Cytotox Green)” value was “increased cell death” and the “effect on cell proliferation (nuclei count, total cell area)” value was “decreased proliferation”.
